≈ marks a conversion by molar mass, not a printed value.
Experiments:
Test in all cases: In vitro antibacterial evaluation: minimum inhibitory concentration (MIC), broth dilution method
Format in all cases: cell-based
Enterococcus sp. = details: 18 hours at 35° C.
Outline: (§1)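 NCCLS M7-A2 broth dilution; Muller-Hinton II […]; 5×10^5 CFU/mL; 64-0.06 μg/mL. MIC = lowest concentration with no growth.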

Escherichia coli = details: 18 hours at 35° C.
Outline: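 Susceptibility determined by NCCLS-recommended broth dilution (M7-A2), Muller-Hinton II […]. Concentration span 64-0.06 μg/mL, inoculum 5×10^5 CFU/mL. Isolates include strains resistant to methicillin, penicillin and/or vancomycin.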

Staphylococcus sp. = test system: Staphylococcus sp.
Outline: as §1

Streptococcus sp. = details: 18 hours at 35° C.
Outline: as §1

[1] = broth dilution, inoculum 5×10^5 CFU/mL

MIC Enterococcus avium (GC 4558) (Enterococcus sp.; Enterococcus avium (GC 4558)): 4 µg/mL (≈ 2.74 µM)
MIC Enterococcus faecalis (ATCC 29212) (Enterococcus sp.; Enterococcus faecalis (ATCC 29212)): 16 µg/mL (≈ 11 µM)
MIC Enterococcus faecalis (GC 2242) (Enterococcus sp.; Enterococcus faecalis (GC 2242)): 8 µg/mL (≈ 5.49 µM)
MIC Enterococcus faecalis (GC 2691) (Enterococcus sp.; Enterococcus faecalis (GC 2691)): 8 µg/mL (≈ 5.49 µM)
MIC Enterococcus faecalis (GC 3059) (Enterococcus sp.; Enterococcus faecalis (GC 3059)): 8 µg/mL (≈ 5.49 µM)
MIC Enterococcus faecalis (GC 4552) (Enterococcus sp.; Enterococcus faecalis (GC 4552)): 16 µg/mL (≈ 11 µM)
MIC Enterococcus faecalis (GC 4553) (Enterococcus sp.; Enterococcus faecalis (GC 4553)): 8 µg/mL (≈ 5.49 µM)
MIC Enterococcus faecalis (GC 4554) (Enterococcus sp.; Enterococcus faecalis (GC 4554)): 16 µg/mL (≈ 11 µM)
MIC Enterococcus faecalis (GC 6189) (Enterococcus sp.; Enterococcus faecalis (GC 6189)): 8 µg/mL (≈ 5.49 µM)
MIC Enterococcus faecium (GC 2243) (Enterococcus sp.; Enterococcus faecium (GC 2243)): 8 µg/mL (≈ 5.49 µM)
MIC Enterococcus faecium (GC 4556) (Enterococcus sp.; Enterococcus faecium (GC 4556)): 8 µg/mL (≈ 5.49 µM)
MIC Enterococcus faecium (GC 4557) (Enterococcus sp.; Enterococcus faecium (GC 4557)): 4 µg/mL (≈ 2.74 µM)
MIC Enterococcus avium (GC 4558) (Enterococcus sp.; [1]): 4 µg/mL (≈ 2.74 µM)
MIC Enterococcus faecalis (ATCC 29212) (Enterococcus sp.; [1]): 16 µg/mL (≈ 11 µM)
MIC Enterococcus faecalis (GC 2242) (Enterococcus sp.; [1]): 8 µg/mL (≈ 5.49 µM)
MIC Enterococcus faecalis (GC 2691) (Enterococcus sp.; [1]): 8 µg/mL (≈ 5.49 µM)
MIC Enterococcus faecalis (GC 3059) (Enterococcus sp.; [1]): 8 µg/mL (≈ 5.49 µM)
MIC Enterococcus faecalis (GC 4552) (Enterococcus sp.; [1]): 16 µg/mL (≈ 11 µM)
MIC Enterococcus faecalis (GC 4553) (Enterococcus sp.; [1]): 8 µg/mL (≈ 5.49 µM)
MIC Enterococcus faecalis (GC 4554) (Enterococcus sp.; [1]): 16 µg/mL (≈ 11 µM)
MIC Enterococcus faecalis (GC 6189) (Enterococcus sp.; [1]): 8 µg/mL (≈ 5.49 µM)
MIC Enterococcus faecium (GC 2243) (Enterococcus sp.; [1]): 8 µg/mL (≈ 5.49 µM)
MIC Enterococcus faecium (GC 4556) (Enterococcus sp.; [1]): 8 µg/mL (≈ 5.49 µM)
MIC Enterococcus faecium (GC 4557) (Enterococcus sp.; [1]): 4 µg/mL (≈ 2.74 µM)
MIC Escherichia coli (ATCC 25922) (Escherichia coli; Escherichia coli (ATCC 25922)): 64 µg/mL (≈ 43.9 µM)
MIC Escherichia coli (GC 4559) (Escherichia coli; Escherichia coli (GC 4559)): 64 µg/mL (≈ 43.9 µM)
MIC Escherichia coli (GC 4560) (Escherichia coli; Escherichia coli (GC 4560)): 8 µg/mL (≈ 5.49 µM)
MIC Staphylococcus aureus (ATCC 29213) (Staphylococcus sp.; strain ATCC 29213): 4 µg/mL (≈ 2.74 µM)
MIC Staphylococcus aureus (GC 1131) (Staphylococcus sp.; strain GC 1131): 8 µg/mL (≈ 5.49 µM)
MIC Staphylococcus aureus (GC 3051) (Staphylococcus sp.; strain GC 3051): 8 µg/mL (≈ 5.49 µM)
MIC Staphylococcus aureus (GC 3053) (Staphylococcus sp.; strain GC 3053): 8 µg/mL (≈ 5.49 µM)
MIC Staphylococcus aureus (GC 4541) (Staphylococcus sp.; strain GC 4541): 4 µg/mL (≈ 2.74 µM)
MIC Staphylococcus aureus (GC 4542) (Staphylococcus sp.; strain GC 4542): 4 µg/mL (≈ 2.74 µM)
MIC Staphylococcus aureus-SMITH (GC 4543) (Staphylococcus sp.; strain GC 4543): 4 µg/mL (≈ 2.74 µM)
MIC Staphylococcus aureus (GC 4544) (Staphylococcus sp.; strain GC 4544): 8 µg/mL (≈ 5.49 µM)
MIC Staphylococcus aureus (GC 4545) (Staphylococcus sp.; strain GC 4545): 4 µg/mL (≈ 2.74 µM)
MIC Coagulase Negative Staphylococcus (GC 4547) (Staphylococcus sp.; strain GC 4547): 8 µg/mL (≈ 5.49 µM)
MIC Coagulase Negative Staphylococcus (GC 4548) (Staphylococcus sp.; strain GC 4548): 4 µg/mL (≈ 2.74 µM)
MIC Coagulase Negative Staphylococcus (GC 4549) (Staphylococcus sp.; strain GC 4549): 4 µg/mL (≈ 2.74 µM)
MIC Coagulase Negative Staphylococcus (GC 4551) (Staphylococcus sp.; strain GC 4551): 4 µg/mL (≈ 2.74 µM)
MIC Coagulase Negative Staphylococcus (GC 6257) (Staphylococcus sp.; strain GC 6257): 4 µg/mL (≈ 2.74 µM)
MIC Streptococcus agalactiae (GC 4564) (Streptococcus sp.; Streptococcus agalactiae (GC 4564)): 2 µg/mL (≈ 1.37 µM)
MIC Streptococcus pneumoniae (ATCC 6301) (Streptococcus sp.; Streptococcus pneumoniae (ATCC 6301)): 1 µg/mL (≈ 0.686 µM)
MIC Streptococcus pneumoniae (GC 1894) (Streptococcus sp.; Streptococcus pneumoniae (GC 1894)): 0.25 µg/mL (≈ 0.172 µM)
MIC Streptococcus pneumoniae (GC 4565) (Streptococcus sp.; Streptococcus pneumoniae (GC 4565)): 2 µg/mL (≈ 1.37 µM)
MIC Streptococcus pyogenes (GC 4563) (Streptococcus sp.; Streptococcus pyogenes (GC 4563)): 2 µg/mL (≈ 1.37 µM)
MIC Streptococcus agalactiae (GC 4564) (Streptococcus sp.; [1]): 2 µg/mL (≈ 1.37 µM)
MIC Streptococcus pneumoniae (ATCC 6301) (Streptococcus sp.; [1]): 1 µg/mL (≈ 0.686 µM)
MIC Streptococcus pneumoniae (GC 1894) (Streptococcus sp.; [1]): 0.25 µg/mL (≈ 0.172 µM)
MIC Streptococcus pneumoniae (GC 4565) (Streptococcus sp.; [1]): 2 µg/mL (≈ 1.37 µM)
MIC Streptococcus pyogenes (GC 4563) (Streptococcus sp.; [1]): 2 µg/mL (≈ 1.37 µM)
SMILES: CC(c1ccccc1)C1NC(=O)CNC(=O)C(CO)NC(=O)C(CC2CNC(=N)N2C2OC(CO)C(O)C(O)C2O)NC(=O)C(CC2CNC(=N)N2)NC(=O)C(Cc2ccc(OC3OC(CO)C(OC4OC5COC(c6ccc(OCc7ccccc7)cc6)OC5C(O)C4O)C(O)C3O)cc2)NC1=O (stereo not shown) [Example 191]
MIC Staphylococcus haemolyticus (GC 4546) (Staphylococcus sp.; strain GC 4546): 4 µg/mL (≈ 2.74 µM)

From US8247211B2, “Glycopeptide antibiotics” (American Cyanamid Company, priority 2001, dated 2012)
